# Experimental data published in US3959248A, “Analogs of thyrotropin-releasing hormone” (Merck & Co., Inc., priority 1975, dated 1976).
# What was measured:
# [1] = system: picolinic acid treated mice; experiment: anti-depressant (CNS stimulant) activity: restoration of anti-convulsant action of methazolamide in picolinic acid treated mice; settings: multiple of the control AD activity of TRH, which has the value 1, in vivo
# Protocol: (§1) The tripeptides of the present invention are found to have anti-depressant activity and thyrotropin releasing hormone activity. Their activity as anti-depressants is as central nervous system (CNS) stimulants and was determined by testing representative tripeptides of the present invention using in vivo assay based on restoration of anti-convulsant action of methazolamide in picolinic acid treated mice. The thyrotropin releasing hormone activity of the present tripeptides was determined using the in vivo assay substantially as described in "Vitamins and Hormone" R.S. Harris et al, 29, 3-4 (1971).
# (§2) The following table contains activity data for a number of representative peptides of the present invention. The protocols used to obtain the data were those described above. The results are expressed numerically as multiples of the TS (thyrotropin stimulation) and AD (anti-depressant) activity compared to the control TS and AD activities of TRH which have the value 1. The designation S.N. is used to indicate substantially no detectable activity at the dosage level tested.
# thyrotropin release = experiment: thyrotropin releasing hormone activity (TS, thyrotropin stimulation), in vivo assay; settings: multiple of the control TS activity of TRH, which has the value 1
# Protocol: as §1, §2
smiles,measurement,setting,value
"NC(=O)[C@@H]1CCCN1C(=O)[C@H](Cc1c[nH]cn1)NC(=O)[C@@H]1CCC(=O)N1 [TRH, L-pyroglutamyl-L-histidyl-L-proline amide]",AD (anti-depressant) activity,[1],1
same,TS (thyrotropin stimulation) activity,thyrotropin release,1
